From patent US12018267B2, “Plants having increased tolerance to herbicides” (BASF SE, priority 2015, dated 2024) come the findings set out here.

The subject of this experiment is transgenic Arabidopsis plants with wildtype or mutated cellulose synthase sequences (SEQ ID NO: 1 or 3). As to the kind of experiment: 48-well plate growth inhibition of transgenic T2 Arabidopsis, relative tolerance rates versus non-transgenic (Table E2-1). The experiment is classed as in vivo, Arabidopsis thaliana. Conditions: growth inhibition evaluated seven to ten days after seeding. An excerpt: For transformation of Arabidopsis thaliana, wildtype or mutated cellulose synthase sequences encoding for one of the following protein sequences SEQ ID NO: 1 or 3, are cloned with standard cloning techniques as described in Sambrook et al. (Molecular cloning (2001) Cold Spring Harbor Laboratory Press) in a binary vector containing resistance marker gene cassette (AHAS) and mutated cellulose synthase sequence (marked as GOI) in between ubiquitin promoter (PcUbi) and nopaline synthase terminator (NOS) sequence. Binary plasmids are introduced to Agrobacterium tumefaciens for plant transformation. Arabidopsis thaliana are transformed with wildtype or mutated cellulose synthase sequences by floral dip method as described by McElver and Singh (WO 2008/124495). Transgenic Arabidopsis plants are subjected to TaqMan analysis for analysis of the number of integration loci.
Transgenic Arabidopsis thaliana plants (T2) are assayed for improved tolerance to azine herbicides like e. g. 6-cyclopentyl-N4-(2,3,4,5,6-pentafluorophenyl)-1,3,5-triazine-2,4-diamine in 48-well plates. Therefore, T2 seeds are surface sterilized by stirring for 5 min in ethanol+water (70+30 by volume), rinsing one time with ethanol+water (70+30 by volume) and two times with sterile, deionized water. The seeds are resuspended in 0.1% agar dissolved in water (w/v) Four to five seeds per well are plated on solid nutrient medium consisting of half-strength murashige skoog nutrient solution, pH 5.8 (Murashige and Skoog (1962) Physiologia Plantarum 15: 473-497). Compounds are dissolved in dimethylsulfoxid (DMSO) and added to the medium prior solidification (final DMSO concentration 0.1%). Multi well plates are incubated in a growth chamber at 22° C., 75% relative humidity and 110 μmol Phot*m^−2*s^−1 with 14:10 h light:dark photoperiod. Growth inhibition is evaluated seven to ten days after seeding in comparison to wild type plants. Tolerance factors are calculated based on IC50 values of growth inhibition of transformed versus non-transformed Arabidopsis plants.

For `Nc1nc(Nc2c(F)c(F)c(F)c(F)c2F)nc(C2CCCC2)n1` [6-cyclopentyl-N4-(2,3,4,5,6-pentafluorophenyl)-1,3,5-triazine-2,4-diamine], the “Relative tolerance rate of transgenic Arabidopsis plants as compared to non-transgenic (non-transgenic = 1.0)” value reads like this: (Construct AtCesA1_G1031R, SEQ ID 1, variant G1031R) 7; (Construct AtCesA1_L1011A, SEQ ID 1, variant L1011A) 3; (Construct AtCesA1_R292H, SEQ ID 1, variant R292H) 3; (Construct AtCesA1_V297M, SEQ ID 1, variant V297M) 1; (Construct AtCesA1_wt, SEQ ID 1, no variant) 1; (Construct AtCesA3_F1039L, SEQ ID 3, variant F1039L) 3. In addition, the “Relative tolerance rate of transgenic Arabidopsis plants as compared to non-transgenic (non-transgenic = 1.0)” value (Construct AtCesA3_wt, SEQ ID 3, no variant) came out at 1.
